Source: US9192599B2, “Treating inflammation and inflammatory pain in mucosa using mucosal prolonged release bioadhesive therapeutic carriers” (Onxeo S.A., priority 2008, dated 2015)
Values joined by “and” are separate entries in the source; they are usually repeats but may differ in a detail not shown here. Equal entries are not always repeated. Where two headings read alike, the source gives them in different places.

Experiments:
mucositis in hamsters = settings: for mucositis severity, daily scores vs vehicle control (Mann-Whitney rank sum): day −1 to 20; for average weight gain, % of starting weight: days −1 to 20, topical; for animal days with mucositis score of 3 or higher / peak mean mucositis score: days −1 to 20; for peak mean mucositis score: peak on day 16, scale 0-5; for course and severity of mucositis, comparison of schedules: day −1 to 20, topical
Protocol: Thirty-two (32) male Syrian Golden Hamsters were randomly assigned to four (4) equally-sized groups. […] All agents were administered topically. On study day 0, each hamster was irradiated with a single dose of 40 Gy directed to the left buccal cheek pouch. Animals were subsequently weighed and observed daily. Beginning on day 6 and continuing on alternate days for the duration of the study, images of the left cheek pouch mucosa was obtained. At the conclusion of the in-life phase of the study, the images were scored for mucositis severity using a validated scale and the number of days of ulcerative mucositis was assessed using a Chi-squared test of scores of ≧3 throughout the study. The individual daily group scores were evaluated using a rank sum test.
Mucositis was induced using a standardized acute radiation protocol. A single dose of radiation (40 Gy/dose) was administered to all animals on day 0. Radiation was generated with a 160 kilovolt potential (15-ma) source at a focal distance of 40 cm, hardened with a 0.35 mm Al filtration system. Irradiation targeted the left buccal pouch mucosa at a rate of 2.5 Gy/minute. Prior to irradiation, animals were anesthetized with an intraperitoneal injection of Ketamine (160 mg/ml) and Xylazine (8 mg/ml). The left buccal pouch was everted, fixed and isolated using a lead shield.
For the evaluation of mucositis, the animals were anesthetized with an Inhalation anesthetic, and the left pouch everted. Mucositis was scored visually by comparison to a validated photographic scale, ranging from 0 for normal, to 5 for severe ulceration (clinical scoring). In descriptive terms, this scale is defined in Table 2:
A score of 1-2 is considered to represent a mild stage of the disease, whereas a score of 3-5 is considered to indicate moderate to severe mucositis. Following visual scoring, a photograph was taken of each animal's mucosa using a standardized technique. At the conclusion of the experiment, all films were developed and the photographs randomly numbered. At least two independent trained observers graded the photographs in blinded fashion using the above-described scale (blinded scoring).
Test materials were given by topical administration directed to the left cheek pouch daily as detailed in Table 3.
to day 20. Animals in Groups 1, 3 and 4 were dosed at 6 am, 11 am, 4 pm and 9 pm. Animals in Group 2 were dosed at 6 am.
Mucositis was evaluated clinically starting on Day 6, and continuing on alternate days until day 28.

TNFα = TNFα quantification by ELISA in human oral mucosa organotypic culture stimulated by substance P; format: cell-based
Protocol: Biopsy samples of clinically healthy non keratinised human oral mucosa were obtained from patients undergoing surgery.
Small biopsies (explant size: 5 mm^2 surface and 3 mm thickness and about 15 to 20 mg weight) were transferred onto permeable polycarbonate membrane transwells (12 mm diameter, 12 μm pore size) in a well of a 12 well plate (as previously described Boisnic S. et al., 2003 and 2006) containing 700 μl of defined medium (DMEM, antibiotics, hormones, pituitary extract, SVF). For each donor, the gingival biopsy was cut to obtain the same weight so that to have comparison between different conditions tested. Explants were maintained at the interface between air and medium: the oral mucosa epithelium was in contact with air and the chorion was exposed to the media by diffusion through the porous polycarbonate membrane.
Cohesion between gingival fragment and insert was obtained with a polyvinylsiloxane addition type silicone elastomer seal (Coltene® president) in such a way that no gingival retraction or lateral passage of the product towards the dermis was possible. The culture was set up for 2 days in a humidified atmosphere containing 5% CO2 at 37° C.
The stimulation of the experimental oral mucosa inflammatory process was done by the neuropeptide substance P (SP) (Boisnic et al., 2003).
The neuropetide SP ([SP]=10 μM) was added (or not) to the culture medium in order to simulate the mucositis pro-inflammatory process. SP was in contact with the mucosal chorion after diffusion through the porous membrane.
The cell culture lasted two days (“D0” for the first day and “D1” for the second day).
Therefore the clonidine treatment was done before and during substance P stimulation.
Removed D1 culture medium in each well; aliquot it in 7 samples of 100 μl and store at −80° C. for cytokines release analysis.
At the end of each culture all the human oral mucosa explants were weighed (cytokines release expressed as pg/mg of cultured oral mucosa explants).
Mean values and standard deviations were calculated for each parameter. The statistical significance of changes recorded in the parameters were determined with unpaired Mann-Whitney U test (p<0.05).

Compound: Clc1cccc(Cl)c1NC1=NCCN1 [clonidine, N-(2,6-dichlorophenyl)-4,5-dihydro-1H-imidazol-2-amine]
- mucositis severity, daily scores vs vehicle control (Mann-Whitney rank sum) (mucositis in hamsters; 12.5 μg/kg 4 times daily, days 20, 22 and 24): significantly lower mucositis scores than the vehicle controls
- mucositis severity, daily scores vs vehicle control (Mann-Whitney rank sum) (mucositis in hamsters; 12.5 μg/kg 4 times daily, days 20, 22 and 24, listed as Clonidine): significantly reduced the severity of mucositis
- average weight gain, % of starting weight (mucositis in hamsters; 12.5 μg/kg 4 times daily): 46.1%
- animal days with mucositis score of 3 or higher (mucositis in hamsters; 12.5 μg/kg 4 times daily, p=0.047 vs vehicle): 26.0%
- peak mean mucositis score (mucositis in hamsters; 12.5 μg/kg 4 times daily): 3.0
- mucositis severity, daily scores vs vehicle control (Mann-Whitney rank sum) (mucositis in hamsters; 25 μg/kg 4 times daily, days 6 and 14): significantly lower mucositis scores than the vehicle controls
- mucositis severity, daily scores vs vehicle control (Mann-Whitney rank sum) (mucositis in hamsters; 25 μg/kg 4 times daily, days 6 and 14, listed as Clonidine): significantly reduced the severity of mucositis
- average weight gain, % of starting weight (mucositis in hamsters; 25 μg/kg 4 times daily): 45.0%
- animal days with mucositis score of 3 or higher (mucositis in hamsters; 25 μg/kg 4 times daily, p=0.125 vs vehicle): 28.1%
- peak mean mucositis score (mucositis in hamsters; 25 μg/kg 4 times daily): 3.1
- course and severity of mucositis, comparison of schedules (mucositis in hamsters; 100 μg/kg once daily): superior to the other concentrations and schedules tested
- course and severity of mucositis, comparison of schedules (mucositis in hamsters; 100 μg/kg once daily, listed as Clonidine): favorably altered the course and severity of mucositis
- mucositis severity, daily scores vs vehicle control (Mann-Whitney rank sum) (mucositis in hamsters; 100 μg/kg once daily, days 16, 20 and 22): significantly different than the vehicle control group
- mucositis severity, daily scores vs vehicle control (Mann-Whitney rank sum) (mucositis in hamsters; 100 μg/kg once daily, days 16, 20 and 22, listed as Clonidine): significantly reduced the severity of mucositis
- average weight gain, % of starting weight (mucositis in hamsters; 100 μg/kg once daily): 51.3%
- animal days with mucositis score of 3 or higher (mucositis in hamsters; 100 μg/kg once daily, p=0.003 vs vehicle): 21.9%
- peak mean mucositis score (mucositis in hamsters; 100 μg/kg once daily): 2.8
- severity of mucositis based on mucositis score area under the curve (mucositis in hamsters; all three treatment groups, p=0.0007): severity of mucositis was reduced
- adverse reaction to treatment (mucositis in hamsters; any of the doses tested): no evidence of any significant adverse reaction
- anti-inflammatory effect on gingiva stimulated by SP (TNFα; doses 0.009, 0.03, 0.09 and 0.3 μg/ml): No significant anti-inflammatory effect
- TNFα quantification by ELISA (TNFα; gingiva + SP, 0.009 μg/ml clonidine): 1.14 ± 0.7 pg/mg
- TNFα quantification by ELISA (TNFα; gingiva + SP, 0.03 μg/ml clonidine): 1.02 ± 0.4 pg/mg
- TNFα quantification by ELISA (TNFα; gingiva + SP, 0.09 μg/ml clonidine): 1.08 ± 0.29 pg/mg
- TNFα quantification by ELISA (TNFα; gingiva + SP, 0.3 μg/ml clonidine): 0.86 ± 0.4 pg/mg
- TNFα quantification by ELISA (TNFα; gingiva + SP, 0.9 μg/ml clonidine): 0.74 pg/mg and 0.74 ± 0.36 (* p = 0.0106) pg/mg
- TNFα quantification by ELISA (TNFα; gingiva + SP, 3 μg/ml clonidine): 0.67 pg/mg and 0.67 ± 0.27 (* p = 0.0056) pg/mg
- TNFα quantification by ELISA (TNFα; gingiva without SP, 3 μg/ml clonidine): 0.83 ± 0.40 pg/mg
- TNFα quantification by ELISA (TNFα; gingiva without SP, 3 μg/ml clonidine, listed as Clonidine): 0.83 pg/mg

Compound: SP: neuropeptide substance P added to culture medium to simulate the mucositis pro-inflammatory process
- TNFα quantification by ELISA (TNFα; gingiva + SP 10 μM, no clonidine (positive control)): 1.7 ± 1.09 (# p = 0.0056) pg/mg
- TNFα quantification by ELISA (TNFα; gingiva + SP 10 μM, no clonidine (positive control), listed as substance P): 1.7 pg/mg
